Reference: patent publication US20250092065A1, “2-(INDAZOL-5-YL)-6-(PIPERIDIN-4-YL)-1,7-NAPHTHYRIDINE DERIVATIVES AND RELATED COMPOUNDS AS MODULATORS FOR SPLICING NUCLEIC ACIDS AND FOR THE TREATMENT OF PROLIFERATIVE DISEASES” (REMIX THERAPEUTICS INC., priority 2022, published 2025)
Counter-ions that a name gives are not always drawn. Like-named read-outs stand apart in the source and are kept apart here.

Tested on: MYB mRNA
Experiment: RT-qPCR splicing assay, MYB mRNA canonical (CJ) and alternative (AJ) junction
Format: cell-based, human
Conditions: Homo sapiens; for AC50: MYB alternative junction mRNA, read-out: MYB AJ (increase in AJ mRNA, AC50)
How it was run: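 Junction-specific RT-qPCR read-out: CJ and AJ isoform levels, housekeeper-normalized (GAPDH/GUSB/PPIA), ΔΔCt vs DMSO, converted to RQ then % response. Cells: A673 (DMEM/10% FBS, adhered 24 h) or K562 (IMDM/10% FBS). Compound 11-pt 3-fold, top 10 uM, 24 h, 37 °C.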

[1] = MYB canonical junction mRNA, RT-qPCR, read-out: MYB CJ (decrease in CJ mRNA levels, IC50)
[2] = canonical junction qPCR panel, Table 4, read-out: MYB IC50 (decrease in CJ mRNA levels)

| SMILES | AC50 (RT-qPCR) [nM] | IC50 [1] [nM] | IC50 [2] [nM] |
| --- | --- | --- | --- |
| CNC(=O)c1nc(-c2cc3cn(C)nc3c(C)c2O)nc2ccc(N3C[C@@H](C)N[C@@H](C)C3)nc12 [Compound 534, 6-[(3R,5S)-3,5-dimethylpiperazin-1-yl]-2-(6-hydroxy-2,7-dimethylindazol-5-yl)-N-methylpyrido[3,2-d]pyrimidine-4-carboxamide] | 100 to 1000 | 100 to 1000 | 100 to 1000 |
| CCNC(=O)c1nc(-c2cc3cn(C)nc3c(C)c2O)nc2ccc(N3C[C@@H](C)N[C@@H](C)C3)cc12 [Compound 535, 6-[(3R,5S)-3,5-dimethylpiperazin-1-yl]-N-ethyl-2-(6-hydroxy-2,7-dimethylindazol-5-yl)quinazoline-4-carboxamide] | < 100 | < 100 | < 100 |
| CNC(=O)c1nc(-c2cc3cn(C)nc3c(C)c2O)nc2ccc(N3CC[C@@H](NC)C3)cc12 [Compound 536, 2-(6-hydroxy-2,7-dimethylindazol-5-yl)-N-methyl-6-[(3R)-3-(methylamino)pyrrolidin-1-yl]quinazoline-4-carboxamide] | < 100 | < 100 | < 100 |
| CNC(=O)c1nc(-c2cc3cn(C)nc3c(C)c2O)nc2ccc(N3CC[C@H](NC)C3)cc12 [Compound 537, 2-(6-hydroxy-2,7-dimethylindazol-5-yl)-N-methyl-6-[(3S)-3-(methylamino)pyrrolidin-1-yl]quinazoline-4-carboxamide] | < 100 | < 100 | < 100 |
| Cc1c(O)c(-c2nc(-c3c[nH]nn3)c3cc(N4CCNCC4)ccc3n2)cc2cn(C)nc12 [Compound 538, 2,7-dimethyl-5-[6-(piperazin-1-yl)-4-(1H-1,2,3-triazol-4-yl)quinazolin-2-yl]indazol-6-ol hydrochloride] | 1000 to 10000 | 1000 to 10000 | 1000 to 10000 |
| Cc1c(O)c(-c2nc(C(=O)NC(C)C)c3cc(N4C[C@@H](C)N[C@@H](C)C4)ccc3n2)cc2cn(C)nc12 [Compound 539, 6-[(3R,5S)-3,5-dimethylpiperazin-1-yl]-2-(6-hydroxy-2,7-dimethylindazol-5-yl)-N-isopropylquinazoline-4-carboxamide] | < 100 | < 100 | < 100 |
| Cc1c(O)c(-c2nc(C(=O)NC3CCC3)c3cc(N4C[C@@H](C)N[C@@H](C)C4)ccc3n2)cc2cn(C)nc12 [Compound 540] | < 100 | < 100 | < 100 |
| Cc1c(O)c(-c2nc(-c3nn[nH]n3)c3cc(N4CCNCC4)ccc3n2)cc2cn(C)nc12 [Compound 541, 2,7-dimethyl-5-[6-(piperazin-1-yl)-4-(2H-1,2,3,4-tetrazol-5-yl)quinazolin-2-yl]indazol-6-ol] | 1000 to 10000 | 1000 to 10000 | 1000 to 10000 |
| C[C@@H]1CN(c2ccc3nc(-c4cc5cn(C)nc5c(F)c4O)nc(C4CC4)c3c2)C[C@H](C)N1 [Compound 542, 5-{4-cyclopropyl-6-[(3R,5S)-3,5-dimethylpiperazin-1-yl]quinazolin-2-yl}-7-fluoro-2-methylindazol-6-ol] | < 100 | < 100 | < 100 |
| CN[C@@H]1CCN(c2ccc3nc(-c4cc5cn(C)nc5c(F)c4O)nc(C4CC4)c3c2)C1 [Compound 543, 5-{4-cyclopropyl-6-[(3R)-3-(methylamino)pyrrolidin-1-yl]quinazolin-2-yl}-7-fluoro-2-methylindazol-6-ol] | < 100 | < 100 | < 100 |
| Cc1cn2cc(-c3ccc4cc(N5C[C@@H](C)N[C@@H](C)C5)cc(F)c4n3)cc(F)c2n1 [Compound 544, 6-[(3R,5S)-3,5-dimethylpiperazin-1-yl]-8-fluoro-2-{8-fluoro-2-methylimidazo[1,2-a]pyridin-6-yl}quinoline] | 100 to 1000 | 100 to 1000 | 100 to 1000 |
| CNC(=O)c1nc(-c2cc3cn(C)nc3c(C)c2O)nc2ccc(N3C[C@H](C)N[C@@H](C)C3)cc12 [Compound 652, 6-[(3S,5S)-3,5-dimethylpiperazin-1-yl]-2-(6-hydroxy-2,7-dimethylindazol-5-yl)-N-methylquinazoline-4-carboxamide] | < 100 | < 100 | < 100 |
| Cc1c(O)c(-c2ncc3cc(N4C[C@H](C)N[C@@H](C)C4)ccc3n2)cc2cn(C)nc12 [Compound 660, 5-{6-[(3S,5S)-3,5-dimethylpiperazin-1-yl]quinazolin-2-yl}-2,7-dimethylindazol-6-ol] | < 100 | < 100 | < 100 |
| CNC(=O)c1nc(-c2cc3cn(C)nc3c(C)c2O)nc2ccc(N3CCC(N4CCC4)CC3)cc12 [Compound 706] | < 100 | < 100 | < 100 |
| C[C@@H]1CN(c2ccc3nc(-c4cc5cn(C)nc5c(F)c4O)nc(C#N)c3c2)C[C@H](C)N1 [Compound 707, 6-[(3R,5S)-3,5-dimethylpiperazin-1-yl]-2-(7-fluoro-6-hydroxy-2-methylindazol-5-yl) quinazoline-4-carbonitrile] | < 100 | < 100 | < 100 |
| C[C@@H]1CN(c2ccc3nc(-c4cc5cn(C)nc5c(F)c4O)nc(C(N)=O)c3c2)C[C@H](C)N1 [Compound 712, 6-[(3R,5S)-3,5-dimethylpiperazin-1-yl]-2-(7-fluoro-6-hydroxy-2-methylindazol-5-yl) quinazoline-4-carboxamide] | < 100 | < 100 | < 100 |
| CC(=O)c1nc(-c2cc3cn(C)nc3c(F)c2O)nc2ccc(N3C[C@@H](C)N[C@@H](C)C3)cc12 [Compound 717, 1-{6-[(3R,5S)-3,5-dimethylpiperazin-1-yl]-2-(7-fluoro-6-hydroxy-2-methylindazol-5-yl)quinazolin-4-yl}ethanone] | < 100 | < 100 | < 100 |
| CNC(=O)c1nc(-c2cc3cn(C)nc3c(F)c2O)nc2ccc(N3CCC(N4CCC4)CC3)cc12 [Compound 722, 6-[4-(azetidin-1-yl)piperidin-1-yl]-2-(7-fluoro-6-hydroxy-2-methylindazol-5-yl)-N-methylquinazoline-4-carboxamide] | < 100 | < 100 | < 100 |
| Cc1cc(N2C[C@@H](C)N[C@@H](C)C2)cc2c(Cl)cc(-c3cc4cn(C)nc4c(F)c3O)nc12 [Compound 723, 5-{4-chloro-6-[(3R,5S)-3,5-dimethylpiperazin-1-yl]-8-methylquinolin-2-yl}-7-fluoro-2-methylindazol-6-ol] | < 100 | < 100 | < 100 |
| CNC(=O)c1nc(-c2cc3cn(C)nc3c(F)c2O)nc2ccc(N3CCNC4(CC4)C3)cc12 [Compound 728, 6-{4,7-diazaspiro[2.5]octan-7-yl}-2-(7-fluoro-6-hydroxy-2-methylindazol-5-yl)-N-methylquinazoline-4-carboxamide] | < 100 | < 100 | < 100 |
| CNC(=O)c1nc(-c2cc3cn(C)nc3c(F)c2O)nc2ccc(N3CC[C@@H](NC)C3)cc12 [Compound 729, 2-(7-fluoro-6-hydroxy-2-methylindazol-5-yl)-N-methyl-6-[(3R)-3-(methylamino)pyrrolidin-1-yl]quinazoline-4-carboxamide] | < 100 | < 100 | < 100 |
| C[C@@H]1CN(c2ccc3nc(-c4cc5cn(C)nc5c(F)c4O)nc(-c4nccs4)c3c2)C[C@H](C)N1 [Compound 732, 5-{6-[(3R,5S)-3,5-dimethylpiperazin-1-yl]-4-(1,3-thiazol-2-yl)quinazolin-2-yl}-7-fluoro-2-methylindazol-6-ol] | > 10000 | 1000 to 10000 | 1000 to 10000 |
| C[C@@H]1CN(c2ccc3nc(-c4cc5cn(C)nc5c(F)c4O)nc(C(=O)NCCO)c3c2)C[C@H](C)N1 [Compound 737, 6-[(3R,5S)-3,5-dimethylpiperazin-1-yl]-2-(7-fluoro-6-hydroxy-2-methylindazol-5-yl)-N-(2-hydroxyethyl)quinazoline-4-carboxamide] | 100 to 1000 | 100 to 1000 | 100 to 1000 |
| CNC(=O)c1nc(-c2cc3cn(C)nc3cc2O)nc2ccc(N3CCC(N(C)C)CC3)cc12 [Compound 742, 6-[4-(dimethylamino)piperidin-1-yl]-2-(6-hydroxy-2-methylindazol-5-yl)-N-methylquinazoline-4-carboxamide] | 100 to 1000 | 100 to 1000 | 100 to 1000 |
| C[C@@H]1CN(c2ccc3nc(-c4cc5cn(C)nc5c(F)c4O)ncc3c2)C[C@H](C)N1 [Compound 743, 5-{6-[(3R,5S)-3,5-dimethylpiperazin-1-yl]quinazolin-2-yl}-7-fluoro-2-methylindazol-6-ol] | > 10000 | 1000 to 10000 | 1000 to 10000 |
| C[C@H]1CN(c2ccc3nc(-c4cc5cn(C)nc5c(F)c4O)ncc3c2)C[C@H](C)N1 [Compound 744, 5-{6-[(3S,5S)-3,5-dimethylpiperazin-1-yl]quinazolin-2-yl}-7-fluoro-2-methylindazol-6-ol] | < 100 | < 100 | < 100 |
| C[C@@H]1CN(c2ccc3nc(-c4cc5cn(C)nc5c(F)c4O)ncc3c2)C[C@@H](C)N1 [Compound 745, 5-{6-[(3R,5R)-3,5-dimethylpiperazin-1-yl]quinazolin-2-yl}-7-fluoro-2-methylindazol-6-ol] | < 100 | < 100 | < 100 |
| CN[C@@H]1CCN(c2cc3c(Cl)cc(-c4cc5cn(C)nc5c(C)c4O)nc3cc2C)C1 [Compound 748, 5-{4-chloro-7-methyl-6-[(3R)-3-(methylamino)pyrrolidin-1-yl]quinolin-2-yl}-2,7-dimethylindazol-6-ol] | 1000 to 10000 | 100 to 1000 | 100 to 1000 |
